Article PMC6678253, “The 1,3,5-Triazine Derivatives as Innovative Chemical Family of 5-HT6 Serotonin Receptor Agents with Therapeutic Perspectives for Cognitive Impairment” (International Journal of Molecular Sciences, 2019)
Read-outs that look alike come from different tables or passages of the source.

Key:
[1] = system: hepatoma HepG2 cell line; test: ATP level in HepG2 (CellTiter-Glo); conditions: 2 h exposure, 10 µM
Experimental: (§2) The cells’ viability was determined by CellTiter 96® AQueous Non-Radioactive Cell Proliferation Assay (MTS), which was purchased from Promega (Madison, WI, USA). The absorbance was measured using a microplate reader EnSpire (PerkinElmer, Waltham, MA USA) at 490 nm. All compounds were tested in quadruplicate. For ATP-level measurement the cells were growth in similar way as in cytotoxicity assays. The CellTiter-Glo® Luminescent Cell Viability Assay and protocol was provided by Promega (Madison, WI, USA). The luminescence was measured after 2 hours-long cells’ exposition on tested compounds and the positive control CCCP by a microplate reader EnSpire (PerkinElmer, Waltham, MA USA) at luminescence mode. All compounds were tested in triplicate.

[2] = target: T1, 5-HT2A (Homo sapiens, UniProt P28223); test: Radioligand binding assay, 5-HT2A ([3H]-ketanserin displacement); conditions: human receptor stably expressed in HEK-293
T1 construct: expressed in transfected cells; host or cells: HEK-293
T1 sequence (P28223 whole entry): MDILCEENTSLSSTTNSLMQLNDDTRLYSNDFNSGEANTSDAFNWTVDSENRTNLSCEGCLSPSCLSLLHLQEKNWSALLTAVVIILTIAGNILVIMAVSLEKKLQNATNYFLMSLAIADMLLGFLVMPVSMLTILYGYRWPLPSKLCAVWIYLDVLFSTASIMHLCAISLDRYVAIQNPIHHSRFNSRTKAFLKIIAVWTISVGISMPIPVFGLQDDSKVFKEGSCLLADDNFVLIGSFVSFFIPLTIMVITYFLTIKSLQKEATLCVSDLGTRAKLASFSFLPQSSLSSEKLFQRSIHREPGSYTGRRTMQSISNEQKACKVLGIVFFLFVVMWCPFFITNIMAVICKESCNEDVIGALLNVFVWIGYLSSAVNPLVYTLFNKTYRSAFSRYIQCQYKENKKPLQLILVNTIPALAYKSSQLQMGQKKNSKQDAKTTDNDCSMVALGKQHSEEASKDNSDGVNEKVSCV

[3] = Parallel artificial membrane permeability assay (PAMPA); format: in vitro ADME; conditions: PBS pH 7.4, 5 h, room temperature, breakpoint for permeable compounds Pe ≥ 1.5 × 10^−6 cm/s, read-out: Pe (permeability coefficient) ± SD
[4] = target: 5-HT6; set-up: method as in PMID 28441580, PMID 30530073, PMID 31229876; conditions: human receptor stably expressed in HEK-293; determined previously; read-out: Ki 5-HT6 [3H]-LSD; cited from earlier work
[5] = target: T2, D2L (Homo sapiens, UniProt P14416); set-up: method as in PMID 28441580, PMID 30530073, PMID 31229876; conditions: human receptor stably expressed in HEK-293; determined previously; read-out: Ki D2L [3H]-Raclopride; cited from earlier work
T2 construct: expressed in transfected cells; host or cells: HEK-293
T2 sequence (P14416 whole entry): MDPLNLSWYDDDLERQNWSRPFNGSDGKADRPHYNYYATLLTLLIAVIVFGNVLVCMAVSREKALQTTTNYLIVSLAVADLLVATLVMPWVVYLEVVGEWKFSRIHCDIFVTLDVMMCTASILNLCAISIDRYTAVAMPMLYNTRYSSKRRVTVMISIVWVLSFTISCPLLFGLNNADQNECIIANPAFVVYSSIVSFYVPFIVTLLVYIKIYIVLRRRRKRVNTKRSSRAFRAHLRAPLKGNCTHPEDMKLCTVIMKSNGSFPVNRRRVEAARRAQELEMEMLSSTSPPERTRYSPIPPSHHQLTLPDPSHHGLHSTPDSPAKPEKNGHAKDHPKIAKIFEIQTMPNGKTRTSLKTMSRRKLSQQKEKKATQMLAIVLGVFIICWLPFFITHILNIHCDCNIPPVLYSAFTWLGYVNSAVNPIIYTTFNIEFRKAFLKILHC

[6] = target: T3, 5-HT1A (Homo sapiens, UniProt P08908); set-up: method as in PMID 28441580, PMID 30530073, PMID 31229876; conditions: human receptor stably expressed in HEK-293; determined previously; read-out: Ki 5-HT1A [3H]-8-OH-DPAT; cited from earlier work
T3 construct: expressed in transfected cells; host or cells: HEK-293
T3 sequence (P08908 1-422): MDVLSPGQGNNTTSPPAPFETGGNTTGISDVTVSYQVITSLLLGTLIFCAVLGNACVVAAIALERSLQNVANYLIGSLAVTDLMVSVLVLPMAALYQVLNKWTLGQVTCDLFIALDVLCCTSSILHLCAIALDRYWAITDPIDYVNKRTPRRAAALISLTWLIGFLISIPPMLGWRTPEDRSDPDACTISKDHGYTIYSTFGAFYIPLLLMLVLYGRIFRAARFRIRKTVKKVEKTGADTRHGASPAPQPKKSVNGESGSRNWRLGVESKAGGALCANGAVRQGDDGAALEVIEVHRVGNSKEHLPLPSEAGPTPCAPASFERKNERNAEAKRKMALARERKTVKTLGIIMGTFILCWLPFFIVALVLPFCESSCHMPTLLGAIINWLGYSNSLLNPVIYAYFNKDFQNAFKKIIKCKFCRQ

[7] = target: T4, 5-HT7 (Homo sapiens, UniProt P34969); set-up: method as in PMID 28441580, PMID 30530073, PMID 31229876; conditions: human receptor stably expressed in HEK-293; determined previously; read-out: Ki 5-HT7 [3H]-5-CT; cited from earlier work
T4 construct: expressed in transfected cells; host or cells: HEK-293
T4 sequence (P34969 1-432): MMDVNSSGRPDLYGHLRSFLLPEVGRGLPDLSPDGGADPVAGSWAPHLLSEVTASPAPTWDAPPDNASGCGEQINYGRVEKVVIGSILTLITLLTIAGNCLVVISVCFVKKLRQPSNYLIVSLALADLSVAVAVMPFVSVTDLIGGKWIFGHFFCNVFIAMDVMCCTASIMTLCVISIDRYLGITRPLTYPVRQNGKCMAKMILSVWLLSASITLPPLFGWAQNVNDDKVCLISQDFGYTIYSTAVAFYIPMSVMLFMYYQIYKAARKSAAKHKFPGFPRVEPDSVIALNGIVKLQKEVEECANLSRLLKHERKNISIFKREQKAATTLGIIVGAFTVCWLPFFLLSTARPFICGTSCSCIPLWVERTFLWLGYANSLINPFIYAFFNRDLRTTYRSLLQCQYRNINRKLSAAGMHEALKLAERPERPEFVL

[8] = target: P-glycoprotein (Pgp) (Homo sapiens, UniProt P08183); test: Luminescent Pgp-Glo Assay System; conditions: 100 μM, 40 min, 37 °C; for Pgp basal activity: > 100% = substrate, increase statistically insignificant
Chain of P-glycoprotein (Pgp) (P08183 whole entry): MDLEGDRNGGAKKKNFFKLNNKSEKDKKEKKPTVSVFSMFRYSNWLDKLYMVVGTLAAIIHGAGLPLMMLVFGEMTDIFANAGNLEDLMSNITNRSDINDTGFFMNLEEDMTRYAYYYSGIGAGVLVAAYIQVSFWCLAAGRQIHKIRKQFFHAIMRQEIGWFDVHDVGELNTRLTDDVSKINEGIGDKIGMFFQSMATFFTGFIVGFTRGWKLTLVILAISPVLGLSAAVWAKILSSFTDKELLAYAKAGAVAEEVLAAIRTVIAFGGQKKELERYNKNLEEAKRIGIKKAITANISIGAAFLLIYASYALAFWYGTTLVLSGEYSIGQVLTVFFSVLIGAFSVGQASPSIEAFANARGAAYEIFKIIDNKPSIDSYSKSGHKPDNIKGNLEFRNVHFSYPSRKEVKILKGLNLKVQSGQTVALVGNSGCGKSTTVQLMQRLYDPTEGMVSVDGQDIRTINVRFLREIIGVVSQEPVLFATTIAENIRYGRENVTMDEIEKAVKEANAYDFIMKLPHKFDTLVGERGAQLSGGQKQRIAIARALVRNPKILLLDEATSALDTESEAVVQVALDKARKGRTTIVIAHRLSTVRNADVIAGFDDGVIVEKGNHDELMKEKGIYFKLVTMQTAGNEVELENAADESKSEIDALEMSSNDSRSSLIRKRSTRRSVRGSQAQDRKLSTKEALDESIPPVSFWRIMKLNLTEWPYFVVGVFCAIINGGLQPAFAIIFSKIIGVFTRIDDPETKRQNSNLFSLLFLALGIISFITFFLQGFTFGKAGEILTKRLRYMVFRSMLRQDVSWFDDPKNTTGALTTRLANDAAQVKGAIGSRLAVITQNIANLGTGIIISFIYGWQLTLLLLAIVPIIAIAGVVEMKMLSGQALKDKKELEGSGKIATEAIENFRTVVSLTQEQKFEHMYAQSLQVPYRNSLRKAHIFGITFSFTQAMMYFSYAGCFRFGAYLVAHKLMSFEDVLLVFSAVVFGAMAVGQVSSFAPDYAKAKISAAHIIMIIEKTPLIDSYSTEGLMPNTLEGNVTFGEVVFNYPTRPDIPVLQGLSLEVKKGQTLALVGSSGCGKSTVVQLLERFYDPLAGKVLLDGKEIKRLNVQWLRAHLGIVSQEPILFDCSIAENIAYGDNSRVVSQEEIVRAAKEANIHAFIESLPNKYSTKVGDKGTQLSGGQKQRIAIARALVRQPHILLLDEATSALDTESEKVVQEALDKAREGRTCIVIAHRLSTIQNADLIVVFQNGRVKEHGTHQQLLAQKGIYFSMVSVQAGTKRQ
Experimental: Moreover, the luminescence Pgp-Glo™ Assay was used in order to determine their influence on P-glycoprotein (Pgp) activity, the main efflux pump in the transport across blood–brain barrier (BBB) and the intestinal epithelium.
The luminescent Pgp-Glo™ Assay System used for determination of 5HT6R ligands’ influence on P-glycoprotein activity was purchased from Promega (Madison, WI, USA). […] The luminescence signal was measured by microplate reader EnSpire PerkinElmer (Waltham, MA, USA).

[9] = system: human embryonic kidney HEK-293 cell line; test: Cytotoxicity, MTS assay in HEK-293
Experimental: as §2

[10] = Metabolic stability in human liver microsomes (HLMs); conditions: for Clint: HLMs 1 mg/mL, 50 µM compound, Clint ≤ 8.6 = low clearance; for half-life at 50 µM: human, human liver microsomes
Experimental: The t1/2 values and intrinsic clearances (Clint) were calculated using IS by protocols and formulas proposed by Obach [30].

[11] = target: T5, CYP2D6 (Homo sapiens, UniProt P10635); test: CYP2D6 P450-Glo assay; format: in vitro ADME; conditions: for CYP2D6 activity (inhibition): at 25 µM
T5 construct: purchased Promega (Madison, WI, USA)
T5 sequence (P10635 whole entry): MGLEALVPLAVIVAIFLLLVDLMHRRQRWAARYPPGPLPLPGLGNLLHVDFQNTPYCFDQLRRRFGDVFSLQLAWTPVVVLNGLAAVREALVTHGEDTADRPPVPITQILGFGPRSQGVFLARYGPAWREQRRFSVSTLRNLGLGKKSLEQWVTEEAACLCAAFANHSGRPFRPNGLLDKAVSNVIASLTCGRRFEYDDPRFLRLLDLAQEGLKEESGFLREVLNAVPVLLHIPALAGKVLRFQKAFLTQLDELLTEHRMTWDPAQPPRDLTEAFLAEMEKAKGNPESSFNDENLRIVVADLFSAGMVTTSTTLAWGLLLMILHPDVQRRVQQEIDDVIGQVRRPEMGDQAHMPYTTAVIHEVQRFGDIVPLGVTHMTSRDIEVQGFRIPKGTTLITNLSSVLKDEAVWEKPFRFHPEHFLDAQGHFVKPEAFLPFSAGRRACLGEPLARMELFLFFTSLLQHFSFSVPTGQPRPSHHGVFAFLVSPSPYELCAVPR
From the text: (§1) The potential risk of drug-drug interactions (DDI) were examined by luminescence-based CYP3A4 and CYP2D6 P450-Glo™ assays (Promega®). These two CYP isoforms are responsible for metabolism of approximately half of all marketed drugs, and an influence on their activity may be a source of DDI danger. […] The luminescent CYP3A4 P450-Glo™ and CYP2D6 P450-Glo™ Promega® (Madison, WI, USA) were used for investigation of potential drug-drug interactions. All assays and protocols were described before.

[12] = Vogel conflict drinking test; conditions: rats
Experimental: It was consisted of polycarbonate cages (dimensions 26.5 cm × 15 cm × 42 cm), equipped with a grid floor made from stainless steel bars and drinking bottles containing tap water. Experimental chambers were connected to PC software by control chassis and electric shocks’ generator. On the first day of the experiment, the rats were adapted to the test chambers and drink water from the bottle spout for 10 min. Afterwards, the rats were returned to their home cages and were given 30 min free access to water followed by a 24-h water deprivation period. The adaptation session and water deprivation protocols were repeated on the second day of the experiment. On the third day the rats were placed again in the test chambers 60 min after investigated and reference compounds administration and were given free access to the drinking tube. Recording data started immediately after the first lick and rats were punished with an electric shock (0.5 mA, lasting 1 s) delivered to the metal drinking tube every 20 licks. The number of licks and the number of shocks received during a 5-min experimental session were recorded automatically.

[13] = target: T2, D2L; test: Radioligand binding assay, D2L ([3H]-raclopride displacement); conditions: human receptor stably expressed in HEK-293
[14] = target: T3, 5-HT1A; test: Radioligand binding assay, 5-HT1A ([3H]-8-OH-DPAT displacement); conditions: human receptor stably expressed in HEK-293
[15] = target: T4, 5-HT7; test: Radioligand binding assay, 5-HT7 ([3H]-5-CT displacement); conditions: human receptor stably expressed in HEK-293
[16] = target: T6, CYP3A4 (Homo sapiens, UniProt P08684); test: CYP3A4 P450-Glo assay; format: in vitro ADME; conditions: 0.01-25 μM; effect of 4 at 10 and 25 µM
T6 construct: purchased Promega (Madison, WI, USA)
T6 sequence (P08684 whole entry): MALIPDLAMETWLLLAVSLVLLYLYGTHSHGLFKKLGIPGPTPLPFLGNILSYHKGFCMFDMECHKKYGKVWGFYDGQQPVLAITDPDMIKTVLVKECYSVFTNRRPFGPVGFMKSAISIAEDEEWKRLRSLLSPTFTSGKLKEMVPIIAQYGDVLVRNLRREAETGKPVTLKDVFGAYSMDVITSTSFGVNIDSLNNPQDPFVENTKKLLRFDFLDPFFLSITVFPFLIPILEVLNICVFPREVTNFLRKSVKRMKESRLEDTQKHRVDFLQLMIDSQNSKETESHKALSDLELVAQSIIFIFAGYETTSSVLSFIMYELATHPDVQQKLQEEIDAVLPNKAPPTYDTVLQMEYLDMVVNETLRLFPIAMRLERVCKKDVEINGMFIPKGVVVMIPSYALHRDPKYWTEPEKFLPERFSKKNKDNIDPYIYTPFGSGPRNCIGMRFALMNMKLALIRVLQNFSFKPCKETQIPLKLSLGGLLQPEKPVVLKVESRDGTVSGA
From the text: as §1

[17] = system: hepatoma HepG2 cell line; test: Hepatotoxicity, MTS assay in HepG2; conditions: 72 h; 100 µM
Experimental: as §2

[18] = Novel object recognition test (NORT), scopolamine-induced memory impairment; format: in vivo, rat; conditions: rats, 1 mg/kg; ANOVA NS
From the text: Taking into account the ability of various 5-HT6R antagonists to improve cognitive deficits, the NORT assay was used to study the influence of the investigated compounds on visual episodic memory. This test is based on the spontaneous exploration of novel and familiar objects. The administration of scopolamine reduces an ability to discriminate a novel object from a familiar one, and any compounds that have a protective effect against this deficit are regarded as potentially useful for treating cognitive deficits that are characteristic for Alzheimer’s disease and other dementia connected disorders.
Five days before the experiment, the rats were transferred to the laboratory, labeled and, thereafter, left to acclimate to the new environment. The animals were handling every five days before experiments to minimize the stress reaction. The protocol was adapted from the original work. The test session comprising of two trials separated by an inter-trial interval (ITI) of 1 h was carried out on the next day. […]
The animals explored the objects by looking, licking, sniffing or touching the object but not when leaning against, standing or sitting on the object. […] Exploration time of the objects was measured by blind experimenter. Based on exploration time (E) of two objects during T2, discrimination index (DI) was calculated according to the formula: DI = (EB − EA)/(EA + […]). […]

[19] = 72 h, only at 100 µM, 1 p < 0.001, 2 p < 0.05

**Q.** With `N#CC(C#N)=NNc1cccc(Cl)c1` [CCCP, carbonyl cyanide 3-chlorophenylhydrazone] as the compound, how does the “ATP level in HepG2” value [1] read?
**A.** Its value is ~ 33 % of control.

**Q.** For `CN1CCN(c2nc(N)nc(Cc3cccc(Cl)c3)n2)CC1` [Compound 1], which Ki [2] is on record?
**A.** Its Ki is 0.272 µM.

**Q.** And the Papp at 5 h, 200 µM [3]?
**A.** The Papp at 5 h, 200 µM was 23.6 ± 2.14 ×10⁻⁶ cm/s.

**Q.** And the Ki [4]?
**A.** Its Ki is 0.028 µM.

**Q.** What about the Ki [5] of the same compound?
**A.** The Ki was 0.838 µM.

**Q.** And the Ki [6]?
**A.** The Ki was 4.95 µM.

**Q.** What about the Ki [7] of the same compound?
**A.** Its Ki is 8.71 µM.

**Q.** And the Pgp basal activity [8]?
**A.** The Pgp basal activity was ~ 135%.

**Q.** What about the HEK-293 cells viability [9, 19] of the same compound?
**A.** The HEK-293 cells viability was “significant effect”.

**Q.** And the Clint [10]?
**A.** Its Clint is 7.56 mL/min/kg.

**Q.** And the half-life at 50 µM [10]?
**A.** The half-life at 50 µM was 1.38 h.

**Q.** Which results are given for `Cc1cccc(Cc2nc(N)nc(N3CCN(C)CC3)n2)c1` [Compound 2]?
**A.** Ki [2]: 0.329 µM; Papp at 5 h, 200 µM [3]: 19.9 ± 2.68 ×10⁻⁶ cm/s; CYP2D6 activity (induction) ([11]; at 10 and 25 µM): ~ 148 % of the control activity; Ki [5]: 1.19 µM; Ki [6]: 10.2 µM; Ki [7]: 16.2 µM; effect on Pgp basal activity ([8]; p < 0.001): inhibited significantly; HEK-293 cells viability [9, 19]: significant effect; Clint [10]: 3.96 mL/min/kg; half-life at 50 µM [10]: 2.63 h

**Q.** With `CN1CCN(c2nc(N)nc(Cc3c[nH]c4ccccc34)n2)CC1` [Compound 3, 4-((1H-indol-3-yl)methyl)-6-(4-methylpiperazin-1-yl)-1,3,5-triazin-2-amine] as the compound, how does the Ki [2] read?
**A.** Its Ki is 1.76 µM.

**Q.** And the Papp at 5 h, 200 µM [3]?
**A.** The Papp at 5 h, 200 µM was 17.9 ± 5.76 ×10⁻⁶ cm/s.

**Q.** What about the “CYP2D6 activity (inhibition)” value [11] of the same compound?
**A.** The value was ~ 75 % of the control activity.

**Q.** And the Ki [4]?
**A.** The Ki was 0.022 µM.

**Q.** And the “increase of the number of shocks” value ([12]; 1 mg/kg i.p., p < 0.05)?
**A.** Its value is “about 82%”.

**Q.** What about the “anxiolytic-like activity in Vogel conflict drinking test” value (“anxiolytic-like activity” for short) ([12]; i.p. 60 min before test) of the same compound?
**A.** The value was “anxiolytic-like activity was shown”.

**Q.** And the Pgp basal activity [8]?
**A.** Its Pgp basal activity is ~ 135%.

**Q.** What about the Clint [10] of the same compound?
**A.** Its Clint is 2.34 mL/min/kg.

**Q.** And the half-life at 50 µM [10]?
**A.** The half-life at 50 µM was 4.45 h.

**Q.** Which results are given for `Cc1ccc(C(C)C)c(OCc2nc(N)nc(N3CCN(C)CC3)n2)c1` [Compound 4, 4-((2-isopropyl-5-methylphenoxy)methyl)-6-(4-methylpiperazin-1-yl)-1,3,5-triazin-2-amine]?
**A.** Ki [13]: 1.09 µM; Ki [14]: 12.5 µM; Ki [2]: 0.43 µM; Ki [15]: 12 µM; Papp at 5 h, 200 µM [3]: 12.3 ± 1.98 ×10⁻⁶ cm/s; influence on CYP3A4 activity [16]: slight induction effect; CYP2D6 activity (inhibition) [11]: ~ 75 % of the control activity; Ki [4]: 0.011 µM; increase of the number of licks ([12]; 0.3 mg/kg i.p., p < 0.0001): about 76%; anxiolytic-like activity in Vogel conflict drinking test ([12]; i.p. 60 min before test): anxiolytic-like activity was shown; Pgp basal activity [8]: ~ 135%; lowest toxic dose vs 5-HT6R Ki ([9]; 10 μM vs Ki = 11 nM): ~ 1000 fold; HEK-293 cells viability ([9]; 72 h, at 10 and 100 µM, p < 0.001): statistically significant decrease in cells viability; lowest toxic dose ([9]; cytotoxicity, 72 h): 10 µM; HepG2 viability (hepatotoxic effect) [17]: hepatotoxic effect; Clint [10]: 6.30 mL/min/kg; half-life at 50 µM [10]: 1.65 h

**Q.** For `COc1ccc(S(=O)(=O)Nc2cc(Cl)cc(Cl)c2OC)cc1N1CCNCC1` [SB-399885, N-[3,5-dichloro-2-(methoxy)-phenyl]-4-(methoxy)-1-(piperazinyl)benzenesulfonamide, reference compound], which “anxiolytic-like activity” value ([12]; 1 and 3 mg/kg i.p.) is on record?
**A.** The value was “exerted anxiolytic-like activity”.

**Q.** And the “anxiolytic-like activity” value ([12]; i.p. 60 min before test)?
**A.** Its value is “anxiolytic-like activity was shown”.

**Q.** With `CCN(C)C(=O)Oc1cccc([C@H](C)N(C)C)c1` [rivastigmine] as the compound, how does the “effect on scopolamine induced learning deficits in NORT” value [18] read?
**A.** The value was “similar, but lower pro-cognitive effects”.
